Laboratory results: US8088791B2, “Antibacterial agents” (Biots Scientific Management Pty Ltd, priority 2006, dated 2012)
≈ marks a conversion by molar mass, not a printed value.

Experiments:
[1] = test system: Staphylococcus aureus ATCC29213; assay: Minimum Inhibitory Concentration (MIC) testing, broth microdilution, Staphylococcus aureus; type: cell-based; conditions: Staphylococcus aureus ATCC29213; for MIC: read-out: Staphylococcus aureus MICs Activity
Experimental: (§1) Compounds of this invention were tested for antimicrobial activity by susceptibility testing in liquid media. MICs for compounds against each strain were determined by a broth microdilution method according to the National Committee for Clinical Laboratory Standards (NCCLS) guidelines. (NCCLS. 2000. Methods for dilution antimicrobial susceptibility tests for bacteria that grow aerobically—fifth edition. Approved standard M7-A5. NCCLS, Wayne, Pa.)
(§2) Briefly, test compounds are prepared in 100 μl of 1.6% DMSO solution in multiwell plates. Several bacterial colonies from a freshly streaked plate are transferred to an appropriate rich broth, such as Mueller Hinton. The cell suspension is adjusted to an optical density of 0.09 and further diluted 1:100 with warm 2× broth. This cell suspension is dispensed into the wells containing compound solution so that the final volume is 200 μl. The plates are incubated overnight (16-20 hours) at 37° C. and turbidity is scored by eye and quantified spectrophotometrically. The MIC is defined as the lowest concentration inhibiting visible growth.
Some of the compounds of the Examples were also tested for activity against the pathogenic organism Staphylococcus aureus ATCC29213. […] Activities were again scored as ‘A’ if the MIC was ≦8 micrograms/ml, ‘B’ if the MIC was 16 to 64 micrograms/ml and ‘C’ if the MIC was greater than 64 micrograms/ml.

Bacillus subtilis 168CA = assay: Minimum Inhibitory Concentration (MIC) testing, broth microdilution, Bacillus subtilis; type: cell-based; conditions: Bacillus subtilis 168CA; for MIC: read-out: Bacillus subtilis MICs Activity
Experimental: as §1, §2
Activities were scored as ‘A’ if the MIC was ≦8 micrograms/ml, ‘B’ if the MIC was 16 to 64 micrograms/ml and ‘C’ if the MIC was greater than 64 micrograms/ml.

SMILES | MIC [1] | MIC (Bacillus subtilis 168CA) | Staphylococcus aureus MICs Activity [1] | Bacillus subtilis MICs Activity (Bacillus subtilis 168CA)
CCCCOC(=O)COc1ccc(F)c(C(N)=O)c1F [Example 83, Butyl 2-[3-(aminocarbonyl)-2,4-difluorophenoxy]acetate] | 16 to 64 µg/mL (≈ 55.7 to 223 µM) | < 8 µg/mL |  | 
CCCCCCOCCOc1ccc(F)c(C(N)=O)c1F [Example 85, 2,6-Difluoro-3-[2-(hexyloxy)ethoxy]benzenecarboxamide] | < 8 µg/mL | < 8 µg/mL |  | 
CC/C=C\CCCCCOc1ccc(F)c(C(N)=O)c1F [Example 86, 2,6-Difluoro-3-[(Z)-6-nonenyloxy]benzenecarboxamide] | < 8 µg/mL | < 8 µg/mL |  | 
CCC1CC1CCCCOc1cccc(C(N)=O)c1 (stereo not drawn) [Example 91, 3-[4-(2-Ethylcyclopropyl)butoxy]benzenecarboxamide] | < 8 µg/mL | < 8 µg/mL |  | 
NC(=O)c1c(F)ccc(OCc2cccc(F)c2)c1F [Example 101, 2,6-Difluoro-3-(3-fluoro-benzyloxy)-benzamide] | 16 to 64 µg/mL (≈ 56.9 to 228 µM) | 16 to 64 µg/mL (≈ 56.9 to 228 µM) |  | 
NC(=O)c1c(F)ccc(OCc2cccc(-c3ccccc3)c2)c1F [Example 102, 3-(Biphenyl-3-ylmethoxy)-2,6-difluoro-benzamide] | < 8 µg/mL | < 8 µg/mL |  | 
Cc1ccc2ccc(COc3ccc(F)c(C(N)=O)c3F)nc2c1 [Example 103, 3-(7-Methylquinolin-2-ylmethoxy)-2,6-difluoro-benzamide] | < 8 µg/mL | < 8 µg/mL |  | 
NC(=O)c1c(F)ccc(OCc2cccc(OC(F)(F)F)c2)c1F [Example 107, 2,6-Difluoro-3-(3-trifluoromethoxybenzyloxy)benzamide] | < 8 µg/mL | < 8 µg/mL |  | 
COC(=O)c1cccc(COc2ccc(F)c(C(N)=O)c2F)c1 [Example 108, 3-(3-Carbamoyl-2,4-difluoro-phenoxymethyl)-benzoic acid methyl ester] | 16 to 64 µg/mL (≈ 49.8 to 199 µM) | 16 to 64 µg/mL (≈ 49.8 to 199 µM) |  | 
COc1ccc(-c2nc(COc3ccc(F)c(C(N)=O)c3F)sc2-c2cccnc2)cc1 [Example 121, 2,6-Difluoro-3-[4-(4-methoxy-phenyl)-5-pyridin-3-yl-thiazol-2-ylmethoxy]-benzamide] | < 8 µg/mL | < 8 µg/mL |  | 
CC(Oc1ccc(F)c(C(N)=O)c1F)c1nc2cc(Cl)ccc2s1 (stereo not drawn) [Example 124, 3-[1-(5-Ohloro-benzothiazol-2-yl)-ethoxy]-2,6-difluoro-benzamide] |  |  | A (‘A’ if the MIC was ≦8 micrograms/ml) | A (‘A’ if the MIC was ≦8 micrograms/ml)
Cc1cccc(COc2ccc(F)c(C(N)=O)c2F)c1F [Example 128, 2,6-Difluoro-3-(2-fluoro-3-methyl-benzyloxy)-benzamide] | 16 to 64 µg/mL (≈ 54.2 to 217 µM) | < 8 µg/mL |  | 
NC(=O)c1c(F)ccc(OCc2coc(-c3ccccc3)n2)c1F [Example 132, 2,6-Difluoro-3-(2-phenyl-oxazol-4-ylmethoxy)-benzamide] | < 8 µg/mL | < 8 µg/mL |  | 
NC(=O)c1c(F)ccc(OCc2coc(-c3cccs3)n2)c1F [Example 133, 2,6-Difluoro-3-(2-thiophen-2-yl-oxazol-4-ylmethoxy)-benzamide] | < 8 µg/mL | < 8 µg/mL |  | 
NC(=O)c1c(F)ccc(OCc2noc(-c3cccs3)n2)c1F [Example 134, 2,6-Difluoro-3-(5-thiophen-2-yl-[1,2,4]oxadiazol-3-ylmethoxy)-benzamide] | 16 to 64 µg/mL (≈ 47.4 to 190 µM) | 16 to 64 µg/mL (≈ 47.4 to 190 µM) |  | 
NC(=O)c1c(F)ccc(OCc2nc3cc(-c4cccc(O)c4)ccc3s2)c1F [Example 136, 2,6-Difluoro-3-[5-(3-hydroxy-phenyl)-benzothiazol-2-ylmethoxy]-benzamide] | < 8 µg/mL | < 8 µg/mL |  | 
NC(=O)c1c(F)ccc(OCc2nc(Cc3ccccc3)cs2)c1F [Example 137, 3-(4-Benzyl-thiazol-2-ylmethoxy)-2,6-difluoro benzamide] |  |  | B (‘B’ if the MIC was 16 to 64 micrograms/ml) | B (‘B’ if the MIC was 16 to 64 micrograms/ml)
NC(=O)c1c(F)ccc(OCc2nnc(C3CC3)s2)c1F [Example 138, 3-(5-Cyclopropyl-[1,3,4]thiadiazol-2-ylmethoxy)-2,6-difluoro-benzamide] | > 64 µg/mL | > 64 µg/mL |  | 
NC(=O)c1c(F)ccc(OCc2nc3cc(-c4ccc(O)cc4)ccc3s2)c1F [Example 140, 2,6-Difluoro-3-[5-(4-hydroxy-phenyl)-benzothiazol-2-ylmethoxy]-benzamide] | < 8 µg/mL | > 64 µg/mL |  | 
NC(=O)c1c(F)ccc(OCc2nc3cc(-c4ccccc4N)ccc3s2)c1F [Example 141, 3-[5-(2-Amino-phenyl)-benzothiazol-2-ylmethoxy]-2,6-difluoro-benzamide] | < 8 µg/mL | < 8 µg/mL |  | 

Second part, led by results:

MIC [1] | MIC (Bacillus subtilis 168CA) | SMILES | Staphylococcus aureus MICs Activity [1] | Bacillus subtilis MICs Activity (Bacillus subtilis 168CA)
< 8 µg/mL | < 8 µg/mL | COc1ccc2ccc(COc3ccc(F)c(C(N)=O)c3F)nc2c1 [Example 98, 2,6-Difluoro-3-(7-methoxy-quinolin-2-ylmethoxy)-benzamide] |  | 
< 8 µg/mL | < 8 µg/mL | NC(=O)c1c(F)ccc(OCc2nc(-c3ccccc3Cl)cs2)c1F [Example 99, 3-[4-(2-Chloro-phenyl)-thiazol-2-ylmethoxy]-2,6-difluoro-benzamide] |  | 
< 8 µg/mL | < 8 µg/mL | COc1ccc(Br)c(-c2csc(COc3ccc(F)c(C(N)=O)c3F)n2)c1 [Example 100, 3-[4-(2-Bromo-5-methoxy-phenyl)-thiazol-2-ylmethoxy]-2,6-difluoro-benzamide] |  | 
< 8 µg/mL | < 8 µg/mL | NC(=O)c1c(F)ccc(OCc2nc3cccc(Cl)c3s2)c1F [Example 104, 2,6-Difluoro-3-(7-chloro-benzothiazol-2-ylmethoxy)-benzamide] |  | 
< 8 µg/mL | < 8 µg/mL | COc1ccc(-c2csc(COc3ccc(F)c(C(N)=O)c3F)n2)cc1 [Example 105, 3-[4-(4-Methoxyphenyl)thiazol-2-ylmethoxy]-2,6-difluoro-benzamide] |  | 
16 to 64 µg/mL (≈ 46.5 to 186 µM) | < 8 µg/mL | COc1ccc2nc(COc3ccc(F)c(C(N)=O)c3F)ccc2c1 [Example 109, 3-(6-Methoxyquinolin-2-ylmethoxy)-2,6-difluoro-benzamide] |  | 
< 8 µg/mL | 16 to 64 µg/mL (≈ 46.1 to 184 µM) | NC(=O)c1c(F)ccc(OCc2nc(-c3ccccn3)cs2)c1F [Example 115, 2,6-Difluoro-3-(4-pyridin-2-yl-thiazol-2-ylmethoxy)-benzamide] |  | 
16 to 64 µg/mL (≈ 54.6 to 218 µM) | 16 to 64 µg/mL (≈ 54.6 to 218 µM) | COc1cccc(COc2ccc(F)c(C(N)=O)c2F)c1 [Example 116, 2,6-Difluoro-3-(3-methoxybenzyloxy)-benzamide] |  | 
< 8 µg/mL | < 8 µg/mL | NC(=O)c1c(F)ccc(OCc2nc3cc([N+](=O)[O-])ccc3s2)c1F [Example 117, 2,6-Difluoro-3-(5-nitro-benzothiazol-2-ylmethoxy)-benzamide] |  | 
< 8 µg/mL | < 8 µg/mL | CCCc1sc(COc2ccc(F)c(C(N)=O)c2F)nc1-c1ccc(OC)cc1 [Example 118, 2,6-Difluoro-3-[4-(4-methoxy-phenyl)-5-propyl-thiazol-2-ylmethoxy]-benzamide] |  | 
< 8 µg/mL | < 8 µg/mL | COc1ccc2sc(COc3ccc(F)c(C(N)=O)c3F)nc2c1 [Example 119, 2,6-Difluoro-3-(5-methoxy-benzothiazol-2-ylmethoxy)-benzamide] |  | 
< 8 µg/mL | < 8 µg/mL | C=CCc1sc(COc2ccc(F)c(C(N)=O)c2F)nc1-c1ccc(OC)cc1 [Example 120, 3-[5-Allyl-4-(4-methoxy-phenyl)-thiazol-2-ylmethoxy]-2,6-difluoro-benzamide] |  | 
< 8 µg/mL | < 8 µg/mL | NC(=O)c1c(F)ccc(OCc2nc(CCc3ccccc3)cs2)c1F [Example 122, 2,6-Difluoro-3-(4-phenethyl-thiazol-2-ylmethoxy)-benzamide] |  | 
< 8 µg/mL | < 8 µg/mL | NC(=O)c1c(F)ccc(OCc2nc3cc(Br)ccc3s2)c1F [Example 123, 3-(5-Bromo-benzothiazol-2-ylmethoxy)-2,6-difluoro-benzamide] |  | 
< 8 µg/mL | < 8 µg/mL | COc1ccc(-c2nc(COc3ccc(F)c(C(N)=O)c3F)sc2-c2ccccn2)cc1 [Example 125, 2,6-Difluoro-3-[4-(4-methoxy-phenyl)-5-pyridin-2-yl-thiazol-2-ylmethoxy]-benzamide] |  | 
< 8 µg/mL | < 8 µg/mL | C=CCc1ccc2sc(COc3ccc(F)c(C(N)=O)c3F)nc2c1 [Example 126, 3-(5-Allyl-benzothiazol-2-ylmethoxy)-2,6-difluoro-benzamide] |  | 
< 8 µg/mL | < 8 µg/mL | COc1ccc(-c2nc(COc3ccc(F)c(C(N)=O)c3F)sc2-c2ccncc2)cc1 [Example 127, 2,6-Difluoro-3-[4-(4-methoxy-phenyl)-5-pyridin-4-yl-thiazol-2-ylmethoxy]-benzamide] |  | 
< 8 µg/mL | < 8 µg/mL | Cc1ccccc1-c1nc(COc2ccc(F)c(C(N)=O)c2F)sc1Br [Example 130] |  | 
< 8 µg/mL | > 64 µg/mL | COc1cccc(-c2ccc3sc(COc4ccc(F)c(C(N)=O)c4F)nc3c2)c1 [Example 143, 2,6-Difluoro-3-[5-(3-methoxy-phenyl)-benzothiazol-2-ylmethoxy]-benzamide] |  | 
